Test results from PubChem BioAssay (NCI).
Values joined by “and” are separate entries in the source; they are usually repeats but may differ in a detail not shown here. Equal values may be shown once.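 Where inhibition never reached the appropriate level, the endpoint shown equals the highest concentration tested. Otherwise, values were interpolated linearly from a five-concentration, 48-hour dose response in 96-well plates. GI50 = concentration required for 50% inhibition of growth. TGI: total growth inhibition.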

Columns and labels:
Assay in all cases: NCI-60 cell line screen, 48 h
HOP-62 NSCLC = test system: HOP-62 NSCLC
LOX IMVI melanoma = test system: LOX IMVI melanoma
MALME-3M melanoma = test system: MALME-3M melanoma
NCI-H23 lung = test system: NCI-H23 lung
SK-MEL-28 melanoma = test system: SK-MEL-28 melanoma
UO-31 renal = test system: UO-31 renal
DU-145 prostate = test system: DU-145 prostate
MDA-MB-231 breast = test system: MDA-MB-231 breast
NCI-H460 lung = test system: NCI-H460 lung
T-47D breast = test system: T-47D breast

SMILES	TGI (HOP-62 NSCLC)	TGI (LOX IMVI melanoma)	TGI (MALME-3M melanoma)	TGI (NCI-H23 lung)	TGI (SK-MEL-28 melanoma)	TGI (UO-31 renal)	TGI (DU-145 prostate) [µM]	GI50 (HOP-62 NSCLC)	GI50 (LOX IMVI melanoma) [µM]	TGI (MDA-MB-231 breast) [µM]	GI50 (NCI-H460 lung)	TGI (NCI-H460 lung)	GI50 (UO-31 renal)	TGI (T-47D breast) [µM]	GI50 (MALME-3M melanoma) [µM]	GI50 (NCI-H23 lung) [µM]	GI50 (DU-145 prostate) [µM]	GI50 (MDA-MB-231 breast) [µM]	GI50 (SK-MEL-28 melanoma) [µM]	GI50 (T-47D breast) [µM]
O=C(N/C(=C\c1ccc([N+](=O)[O-])cc1)c1nc2ccccc2s1)c1ccccc1	> 100 µM	46.5 µM	> 100 µM	61.7 µM	> 100 µM	56.3 µM														
C/C=C/C=C/c1cc2cc3c(c(O)c2c(=O)[nH]1)C1(CC3)C(O)=c2c(=O)c3c(=O)cc(OC)c(=O)c=3c(=O)c2=C1O (centres undefined)	4.49 µM and 8.28 µM	9.5 µM	2.19 µM and 12.9 µM	10.1 µM and 8.27 µM	4.93 µM and 20.1 µM	16.3 µM and 9.83 µM	15.8	0.327 µM and 1.15 µM	1.27	4.15	0.192 µM and 0.985 µM	15.6 µM and 12 µM	0.17 µM and 1.37 µM							
O=C1/C(=C/c2ccc(Cl)cc2)CCC1CNc1ccc(Cl)cc1 (centres undefined)	56.1 µM	15.1 µM	44.8 µM	55.1 µM	35.9 µM	30.1 µM	31.8			20.5		> 100 µM								
Cc1cccc2c(=O)c3c(O)cc(O)cc3n(C)c12	> 100 µM	> 100 µM	> 100 µM	> 100 µM	> 100 µM		> 100			> 100		> 100 µM								
CCOc1ccc2nc(NC(=O)C(=O)C3C(=O)C(CC4C(=O)c5ccccc5C4=O)C(=O)CC3(C)C)sc2c1 (centres undefined)	> 100 µM	> 100 µM		> 100 µM	> 100 µM	> 100 µM	> 100			> 100		> 100 µM								
N#C/C(=C\c1ccc(O)cc1)C(N)=O	> 100 µM	> 100 µM	> 100 µM	> 100 µM	> 100 µM	> 100 µM						> 100 µM								
OC12CCC3(OC4CCCCO4)c4ccccc4C3C1c1ccccc12 (centres undefined)	> 100 µM	> 100 µM	> 100 µM	> 100 µM	> 100 µM	> 100 µM						> 100 µM								
Cc1nc2c(C)ccc([N+](=O)[O-])c2c(NCCCN(C)C)c1C	> 66.6 µM	> 100 µM	> 55.3 µM	> 100 µM	> 54.8 µM	> 100 µM	> 100					> 100 µM		> 100						
C=CCNC(=S)NNC(=O)c1c(C)nc2sccn12	> 100 µM	> 100 µM	> 100 µM	> 100 µM	> 100 µM							> 100 µM								
CCCC1C[C@H]2CCCCN2[C@H]2CCCN12 (some centres undefined)	> 100 µM	> 55 µM	> 100 µM	> 100 µM	> 100 µM	> 100 µM						> 100 µM								
O=P(CN1CCOCC1)(c1ccccc1)c1ccccc1	> 100 µM	> 100 µM	> 100 µM	> 100 µM	> 100 µM	> 100 µM						> 100 µM								
CCOc1ccc(NC(=O)CC2SC(=Nc3ccc(C)cc3)NC2=O)cc1 (centres undefined)	> 100 µM	> 100 µM	> 100 µM	> 100 µM	> 100 µM	> 100 µM						> 100 µM								
O=S(=O)(c1ccccc1)N1CCCC(c2ccccc2)CC1 (centres undefined)			> 100 µM	> 100 µM	> 100 µM	> 100 µM	> 100			> 100		> 100 µM		> 100						
COc1ccc(/C=C/C(=O)c2c(-c3ccccc3)nn(C)c(=O)c2N2CC2C)cc1 (centres undefined)	> 100 µM	34 µM	> 100 µM	50.7 µM	> 100 µM	> 100 µM						65.5 µM								
N=C(N)c1ccc2oc3ccc(C(=N)N)cc3c(=O)c2c1			> 100 µM	> 100 µM	> 100 µM	> 100 µM	> 100			> 100		> 100 µM		> 100						
COc1cccc(/C=C2\N=C(c3ccccc3)OC2=O)c1	> 100 µM	66.8 µM		> 100 µM	> 100 µM	> 100 µM	> 100			> 100		> 100 µM		> 100						
Cc1cc(Cl)ccc1N=C1NC(=O)C(CC(=O)Nc2cccc(Cl)c2)S1 (centres undefined)	> 100 µM	> 100 µM	> 100 µM	> 100 µM	> 100 µM	> 100 µM						> 100 µM								
FC(F)(F)c1ccccc1C1SCc2nc3ccccc3n21 (centres undefined)			> 100 µM	> 100 µM	> 100 µM	> 100 µM														
CC1[C@@]2(CCC(C)(C)O2)O[C@@H]2C=C3C4CCC5Cc6nc7c(nc6C[C@@]5(C)C4C[C@H](O)[C@@]3(C)[C@]12O)CC1CCC2C3=C[C@H]4O[C@@]5(O[C@@](C)(CO)C[C@@H]5O)C(C)[C@@]4(O)[C@]3(C)[C@@H](O)CC2[C@]1(C)C7 (some centres undefined)		0.695 µM and 0.366 µM			0.221 µM	0.114 µM		0.000389 µM	0.0106		0.00135 µM	0.365 µM and 0.0392 µM			0.0101	0.00308				
CC(C)(C)N/N=C(/Cc1nc2c3c(ccc2[nH]c1=O)C(=O)c1ccccc1C3=O)C(=O)NC1=C(Cl)C(=O)c2ccccc2C1=O		> 100 µM	37.8 µM	> 100 µM	> 100 µM	> 100 µM	> 100					31.3 µM		> 100						
CCCN1C(=O)/C(=C/c2ccc(SC(F)(F)F)cc2)SC1=Nc1ccc(OC)cc1	> 50 µM	> 50 µM		30.2 µM	> 50 µM	17.1 µM	> 50	16.5 µM	4.36	19.5	12.1 µM	> 50 µM	8.2 µM			12.6	21.8	5.93	28.4	
COc1ccc(/C=C/C(=N\NC(=O)c2ccccc2)c2sc(Nc3ccc([N+](=O)[O-])cc3)nc2C)cc1OC	49.9 µM	15.9 µM	43.1 µM		47.2 µM	56.6 µM						41.2 µM								
CCN(CC)CCOC(COc1cc(C)cc(C)c1)COc1cc(C)cc(C)c1	18.5 µM	2.73 µM	3.86 µM	14.7 µM	3.77 µM	13 µM	13.4	2.72 µM	1.31				2.19 µM	6.83	1.88	2.36	3.4		1.84	2.34
COc1cc2c(oc(=O)c3c4occc4cc(OC)c23)c2cccc(O)c12	> 100 µM	> 100 µM	> 100 µM	> 100 µM	> 100 µM	> 100 µM						> 100 µM								
